Test results taken from US5250679A, “Nonpeptidyl platelet aggregation inhibitors having specificity for the GPIIb III receptor” (Genentech, Inc., priority 1992, dated 1993).

Key:
[1] = molecular target: T1, GP IIb IIIa (Homo sapiens, UniProt P05106+P08514); test: Fibrinogen-GP IIb IIIa Receptor ELISA Binding Assay (Fg/IIbIIIa)
T1 construct: from tissue; host or cells: outdated human platelets
Summary of the method: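 Purified human platelet GP IIb IIIa binding to immobilised purified fibrinogen was run with compound at room temperature for 1 h. IC50 values were determined.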

[2] = molecular target: T1, GP IIb IIIa; test: GP IIb IIIa -von Willebrand factor (vWF) ELISA Assay (vWF/IIbIIIa); assay type: binding; settings: Example 30, G # table
Method: Microtiter plates are coated with 1.0 mg/ml GP IIb IIIa, prepared by the method of Fitzgerald et al., (Anal. Biochem. 151: 169-177 [1985]) and allowed to incubate overnight in coat buffer. The plates are then washed three times in wash buffer (0.05% Tween 20 in PBS) and 150 ml of assay buffer is added and allowed to incubate for 1-2 hours at room temperature on plate shaker. […] Fifty ml of 4.0 mg/ml vWF (prepared as described by Ledford et al., Thrombosis and Haemostasis, 64(4): 569-575 ]1990]) in assay buffer is then added and allowed to incubate for one hour at room temperature on plate-shaker. The plates are washed three times and the antibody mixture is added (1:5000 of mouse anti-vWF and 1:5000 of rabbit-anti-mouse-Fc-HRP, both commercially available) in assay buffer and incubated for 1 hour at room temperature on plate-shaker. […] The color change of OPD/H2 O2 reagent is read at 492 nm with a 405 nm reference wavelength on the filter photometer.

[3] = molecular target: T2, Human Vitronectin receptor (av b3) (Homo sapiens, UniProt P05106+P06756); test: Human Vitronectin-Vitronectin Receptor (av b3) ELISA Assay (Vn/VnR); assay type: binding; settings: Example 30, G # table
T2 construct: is purified from human placenta; from tissue; host or cells: human placenta
Source text: Human vitronectin (Vn) is isolated from human plasma and purified by affinity chromatography by the method of Yatohgo et. al., (Cell Structure and Function 13: 281-292 [1988]).
Human vitronection receptor (VnR) is purified from human placenta by the method of Pytela et al., (Methods Enzymol., 144: 475 [1987]). Alternatively the av b3 receptor can be purified from some cell lines (e.g., human embryonic kidney 293 cells) transfected with DNA sequences for both the av and b3 subunits. The subunits are purified by employing octylglucoside extraction followed by Con-A, Heparin-Sepharose, and S-300 Chromatography.
This mouse Mab is specific for the b3 subunit of the vitronectin receptor.
Rabbit Fab 2 anti-mouse Fc fragment horse radish peroxidase conjugate (anti-MuFc HRP) is obtained from PelFreeze (cat. no. 715305-1).
Maxisorp microtiter plates are coated with 2 mg/ml human vitronectin dissolved in PBS (50 ml/well) and stored overnight at 4° C. The plates are washed two times with PBS-0.05% Tween-20 (wash buffer) and blocked by incubating with about 150 ml/well of assay buffer (1%, BSA [RIA grade or better] in 50 mM Tris-HCl, 100 mM NaCl, 1 mM MgCl2, CaCl2, MnCl2 pH 7.4) for 60 minutes. […] The blocked plates are emptied and 25 ml/well of inhibitor or standard solution is added to each well. Twenty-five ml of a 30 mg/ml solution of purified av b3 in assay buffer is pipetted into the coated plate. The final concentration of receptor in the assay well is about 15 mg/ml. The plate is incubated on a shaker for 60 minutes. Meanwhile, for each microtite plate, 6 ml buffer solution containing 1.5 mg/ml of mouse monoclonal antibody specific for b3 is prepared. To this solution is added ml of the secondary antibody, which is anti-mouse-Fc-HRP antibody conjugate. For example, for one plate, prepare 6 ml of a 1.5 mg/ml mouse Mab solution to which is added 1 ml of anti-mouse-Fc-HRP antibody stock, (this represents a 1:6000 dilution of the antibody-HRP conjugate). This mixture is allowed to incubate during the receptor-inhibitor incubation. The assay plates are washed 4 times with PBS-Tween and 50 ml/well of the antibody mixture is then pipetted into the plate for a 60 minute incubation. The plate is washed 4 times and the color reaction is developed with 50 ml/well of 0.67 mg/ml o-phenyldiamine in PBS containing 0.012% H2 O2. Alternatively, 16 mM citric acid, 50 mM Na2 PO4 at pH 5.0 can be used as a substrate buffer. The reaction is stopped with 50 ml/well 1 M H2 SO4. The plates are read at 492-405 nm and the data analyzed by four-parameter fit.

[4] = test system: human platelet rich plasma (PRP); test: In Vitro Human Platelet Aggregation Assay (PA); assay type: cell-based; settings: Homo sapiens, Platelet, citrate; read-out: PA IC50 (μM) (citrate)
Method: In addition to the GPIIb IIIa ELISA assay, platelet aggregation assays may be performed in human platelet rich plasma (PRP). […] The blood is centrifuged at 160×g for 10 min at 22° C. and then allowed to stand for 5 min after which the PRP is decanted. Platelet poor plasma (PPP) is isolated from the remaining blood after centrifugation at 2000×g for 25 min. The platelet count of the PRP is adjusted to ca. 300,000 per microliter with PPP.
A 225 mL aliquot of PRP plus 25 mL of either a dilution of the test sample or a control (PBS) is incubated for 5 min in a Chrono-log Whole Blood Aggregometer at 25° C. An aggregating agent (collagen, 1 mg/ml; U46619, 100 ng/ml; or ADP, 8 mM) is added and the platelet aggregation recorded.
Platelet aggregation assays are performed in human platelet rich plasma (PRP). […] The blood is centrifuged at 160×g for 10 minutes at 22° C. and allowed to stand for 5 minutes after which the PRP is decanted. Platelet poor plasma (PPP) is isolated from the remaining blood after centrifugation at 2000×g for 25 minutes. The platelet count of the PRP is diluted to about 300,000 platelets per microliter with PPP.
A 225 ml aliquot of PRP plus 25 ml of either a dilution of the test inhibitor sample or a control (PBS) is incubated for 5 minutes in a Chrono-log Whole Blood Aggregometer at 25° C. An aggregating agent (collagen, 1 mg/ml; U46619, 100 ng/ml; or ADP, 17 mM) is added and the transmission is recorded.

[5] = Example 29, Cmpd # 1-105, read-out: IC50 Fg/IIbI
[6] = Example 30, G # table, read-out: IC50 (μM) Fg/IIbIIIa

T2 sequence (P06756 31-889 limits assumed): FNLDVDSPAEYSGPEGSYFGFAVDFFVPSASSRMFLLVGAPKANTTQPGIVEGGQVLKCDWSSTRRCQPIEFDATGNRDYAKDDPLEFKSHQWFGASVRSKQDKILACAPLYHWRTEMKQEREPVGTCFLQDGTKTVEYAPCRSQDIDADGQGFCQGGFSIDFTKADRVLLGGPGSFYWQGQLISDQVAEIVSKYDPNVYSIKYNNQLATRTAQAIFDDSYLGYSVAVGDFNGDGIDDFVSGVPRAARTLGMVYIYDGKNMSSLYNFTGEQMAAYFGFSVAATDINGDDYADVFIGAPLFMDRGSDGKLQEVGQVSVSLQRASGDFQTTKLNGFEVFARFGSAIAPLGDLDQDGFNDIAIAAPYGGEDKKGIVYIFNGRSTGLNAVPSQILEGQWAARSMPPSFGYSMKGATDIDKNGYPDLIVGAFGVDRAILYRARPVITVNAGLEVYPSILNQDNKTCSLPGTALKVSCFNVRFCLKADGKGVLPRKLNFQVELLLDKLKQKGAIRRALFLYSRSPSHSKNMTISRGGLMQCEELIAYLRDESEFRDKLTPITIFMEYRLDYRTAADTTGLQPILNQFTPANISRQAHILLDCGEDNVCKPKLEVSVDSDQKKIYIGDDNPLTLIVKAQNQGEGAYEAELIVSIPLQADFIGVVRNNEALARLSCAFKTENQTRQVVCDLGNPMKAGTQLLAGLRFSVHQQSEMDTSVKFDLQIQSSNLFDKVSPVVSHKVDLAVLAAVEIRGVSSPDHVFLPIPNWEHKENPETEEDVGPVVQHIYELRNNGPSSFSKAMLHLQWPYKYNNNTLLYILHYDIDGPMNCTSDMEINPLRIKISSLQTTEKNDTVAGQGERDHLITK
T2 sequence (P06756 891-1048 partner limits assumed): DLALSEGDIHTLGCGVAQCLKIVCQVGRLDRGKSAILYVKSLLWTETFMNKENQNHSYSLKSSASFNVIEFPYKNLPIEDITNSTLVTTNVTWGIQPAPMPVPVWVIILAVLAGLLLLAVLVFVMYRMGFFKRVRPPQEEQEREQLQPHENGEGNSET
T2 sequence (P05106 27-788): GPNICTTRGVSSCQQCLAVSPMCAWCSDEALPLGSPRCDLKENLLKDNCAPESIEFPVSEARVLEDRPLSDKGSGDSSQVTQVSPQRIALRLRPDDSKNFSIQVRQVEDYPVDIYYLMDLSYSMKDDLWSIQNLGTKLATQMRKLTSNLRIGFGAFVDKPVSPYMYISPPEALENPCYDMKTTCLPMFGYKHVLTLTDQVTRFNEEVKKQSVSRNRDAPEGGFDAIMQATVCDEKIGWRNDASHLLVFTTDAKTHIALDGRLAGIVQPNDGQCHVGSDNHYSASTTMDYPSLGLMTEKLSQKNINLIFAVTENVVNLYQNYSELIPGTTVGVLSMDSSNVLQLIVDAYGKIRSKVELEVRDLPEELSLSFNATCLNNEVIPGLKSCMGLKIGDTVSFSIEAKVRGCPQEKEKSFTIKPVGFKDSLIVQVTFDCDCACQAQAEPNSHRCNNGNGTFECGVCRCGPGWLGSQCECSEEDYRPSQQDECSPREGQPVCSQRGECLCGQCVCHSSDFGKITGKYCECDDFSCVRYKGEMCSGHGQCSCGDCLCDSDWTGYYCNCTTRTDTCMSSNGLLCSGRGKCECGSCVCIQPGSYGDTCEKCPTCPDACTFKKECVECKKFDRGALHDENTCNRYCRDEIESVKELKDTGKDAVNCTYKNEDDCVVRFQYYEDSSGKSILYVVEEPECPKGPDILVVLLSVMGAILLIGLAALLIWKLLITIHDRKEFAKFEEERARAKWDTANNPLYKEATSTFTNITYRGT
T1 sequence (P08514 32-887 limits assumed): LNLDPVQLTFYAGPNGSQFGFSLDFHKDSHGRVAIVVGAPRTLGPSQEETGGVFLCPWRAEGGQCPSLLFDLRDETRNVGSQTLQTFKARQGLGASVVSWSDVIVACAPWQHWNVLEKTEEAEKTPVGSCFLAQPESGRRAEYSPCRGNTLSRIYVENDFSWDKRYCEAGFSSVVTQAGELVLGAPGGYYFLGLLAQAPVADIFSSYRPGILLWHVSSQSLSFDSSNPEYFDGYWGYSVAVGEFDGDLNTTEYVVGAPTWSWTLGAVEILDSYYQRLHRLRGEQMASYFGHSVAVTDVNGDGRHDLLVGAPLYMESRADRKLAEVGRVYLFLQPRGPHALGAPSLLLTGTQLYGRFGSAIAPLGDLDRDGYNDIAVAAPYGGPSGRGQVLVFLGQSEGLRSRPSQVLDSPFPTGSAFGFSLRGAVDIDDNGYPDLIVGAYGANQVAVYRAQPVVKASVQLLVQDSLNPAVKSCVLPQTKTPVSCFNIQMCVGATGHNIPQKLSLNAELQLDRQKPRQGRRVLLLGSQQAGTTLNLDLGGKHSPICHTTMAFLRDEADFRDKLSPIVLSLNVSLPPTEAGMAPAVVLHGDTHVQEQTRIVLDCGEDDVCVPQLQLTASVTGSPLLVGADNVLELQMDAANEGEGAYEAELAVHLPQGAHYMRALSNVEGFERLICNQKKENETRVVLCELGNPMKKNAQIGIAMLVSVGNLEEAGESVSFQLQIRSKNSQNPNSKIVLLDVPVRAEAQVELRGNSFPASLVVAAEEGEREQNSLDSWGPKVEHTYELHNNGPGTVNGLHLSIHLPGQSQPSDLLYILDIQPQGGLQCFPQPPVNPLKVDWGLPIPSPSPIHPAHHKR
T1 sequence (P08514 891-1039 partner limits assumed): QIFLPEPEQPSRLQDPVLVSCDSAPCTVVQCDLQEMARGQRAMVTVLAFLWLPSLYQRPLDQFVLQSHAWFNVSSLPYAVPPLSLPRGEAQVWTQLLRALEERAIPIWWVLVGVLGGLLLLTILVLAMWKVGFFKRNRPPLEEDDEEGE
T1 sequence (P05106 27-788): as the sequence (P05106 27-788) above

| Compound | IC50 [1, 5] | IC50 [1, 6] | IC50 [2] | IC50 [3] | IC50 [4] |
| --- | --- | --- | --- | --- | --- |
| CN1C(=O)CN(CCC(=O)O)C(=O)c2cc(CCCCCNC(=N)N)ccc21 [Cmpd 28, 1-methyl-4-(2-carboxyethyl)-7-(5-guanidino-1-pentyl)-3,4-dihydro-1H-1,4-benzodiazepine-2,5-dione trifluroacetate] | 0.055 µM | 0.055 µM | 0.024 µM | > 10 µM |  |
| CN1C(=O)CN(CCC(=O)O)C(=O)c2cc(C#CCCCN)ccc21 [Cmpd 33, 1-methyl-4-(2-carboxyethyl)-7-(5-amino-1-pentynyl)-3,4-dihydro-1H-1,4-benzodiazepine-2,5-dione trifluroacetate] | 0.096 µM | 0.096 µM | 0.39 µM | > 10 µM | 85.5 µM |
| N=C(N)NCCCC#Cc1ccc2c(c1)C(=O)N(CCC(=O)O)CC(=O)N2Cc1cccc([N+](=O)[O-])c1 [Cmpd 36, 1-(3-nitrobenzyl)-4-(2-carboxyethyl)-7-(5-guanidino-1-pentynyl)-3,4-dihydro-1H-1,4-benzodiazepine-2,5-dione trifluroacetate] | 0.0032 µM | 0.0032 µM | 0.0004 µM | 3 µM | 0.94 µM |
